From PMC11509018, “Evaluation of the Role of Tanshinone I in an In Vitro System of Charcot-Marie-Tooth Disease Type 2N” (International Journal of Molecular Sciences, 2024)
“Also recorded” adds a separate entry of the source.

Key:
[1] = target: T1, AlaRS^R329H (Homo sapiens, UniProt P49588, R329H); test: ATP consumption assay (enzyme inhibition); type: biochemical; details: 1 μM AlaRS^R329H at 20 μM compounds; vs DMSO control
T1 construct: made in house; host or cells: E. coli BL21 (DE3), pET-21a
T1 sequence (P49588 1-968 R329H): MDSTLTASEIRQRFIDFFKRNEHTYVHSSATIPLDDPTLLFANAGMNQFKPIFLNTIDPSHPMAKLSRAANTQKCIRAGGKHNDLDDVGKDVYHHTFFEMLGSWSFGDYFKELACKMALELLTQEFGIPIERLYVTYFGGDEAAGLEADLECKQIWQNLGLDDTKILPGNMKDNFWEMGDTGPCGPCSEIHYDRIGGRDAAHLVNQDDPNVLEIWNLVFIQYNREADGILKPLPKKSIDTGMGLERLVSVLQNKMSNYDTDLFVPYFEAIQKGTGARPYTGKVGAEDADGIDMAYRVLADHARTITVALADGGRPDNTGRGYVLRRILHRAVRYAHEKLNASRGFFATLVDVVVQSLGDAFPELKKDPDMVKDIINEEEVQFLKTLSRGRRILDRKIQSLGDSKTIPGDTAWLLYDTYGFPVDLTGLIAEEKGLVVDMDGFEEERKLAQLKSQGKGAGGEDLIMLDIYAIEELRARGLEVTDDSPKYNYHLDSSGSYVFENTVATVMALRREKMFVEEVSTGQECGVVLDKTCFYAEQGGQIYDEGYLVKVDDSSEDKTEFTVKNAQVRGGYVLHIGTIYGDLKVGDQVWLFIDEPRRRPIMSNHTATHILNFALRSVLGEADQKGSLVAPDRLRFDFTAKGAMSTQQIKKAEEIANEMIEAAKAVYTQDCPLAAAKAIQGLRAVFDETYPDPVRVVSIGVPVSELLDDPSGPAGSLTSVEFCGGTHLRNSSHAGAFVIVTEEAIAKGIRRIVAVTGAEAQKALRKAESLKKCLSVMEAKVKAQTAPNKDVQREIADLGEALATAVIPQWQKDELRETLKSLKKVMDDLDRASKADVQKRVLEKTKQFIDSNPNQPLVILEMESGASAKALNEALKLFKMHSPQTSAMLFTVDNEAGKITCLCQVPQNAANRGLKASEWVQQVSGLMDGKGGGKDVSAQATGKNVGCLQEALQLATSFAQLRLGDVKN
Description: We further investigated the effects of the four small molecules on the enzymatic activity of the AlaRS^R329H protein using an ATP consumption assay. All four compounds affected enzymatic activity to varying degrees. […] The ATP consumption assay was used to evaluate the enzymatic inhibitory activity of the compounds. A 30 μL reaction mixture, containing 1 μM AlaRS mutants, 25 μM ATP, 50 μM L-alanine, 30 mM HEPES (pH 7.5), 150 mM NaCl, 30 mM KCl, 40 mM MgCl2, 0.1% BSA, and varying concentrations of Tanshinone I, was incubated at room temperature for 15 min. After incubation, 10 μL of the mixture was transferred to a 384-well microplate, and AlaRS mutant activity was measured by adding 10 μL of the ATP Assay Kit (#S0026, Beyotime, Shanghai, China). Luminescence was recorded using a Synergy HTX multimode microplate reader (BioTek Inc., Winooski, VT, USA). The inhibitory rate was calculated from three independent assays to ensure the accurate assessment of Tanshinone I’s inhibitory activity. The experiment was repeated three times.

[2] = target: T1, AlaRS^R329H; test: Proteolytic digestion assay (trypsin, SDS-PAGE); details: 3 h
Description: To delve deeper into the impact of selected small molecules on the structural conformation of AlaRS^R329H proteins, a series of proteolysis experiments were conducted. The small molecules were incubated with AlaRS^R329H proteins at room temperature for three hours, followed by SDS-PAGE analysis to evaluate their effects on the distribution of the digestion fragments. […] The AlaRS^R329H proteins (in the presence and absence of Atazanavir sulfate, Tanshinone I, Hederacolchiside A1, and Hexylresorcinol) were incubated with trypsin at different concentrations for 3 h before the reactions were quenched, and the products were separated by SDS-PAGE.

[3] = target: T1, AlaRS^R329H; test: Biolayer interferometry (BLI); type: binding; details: immobilized AlaRS^R329H, 40, 20, 10, 5, 2.5 μM, mean ± SD, triplicate
Text: To quantitatively analyze the binding affinity between the small molecules and the CMT mutant proteins, we performed BLI analysis on the selected candidates. BLI offers direct measurements of drug–protein binding kinetics, including key parameters such as the equilibrium dissociation constant (KD), association rate (Kon), and dissociation rate (Koff). This analysis provided key insights into the binding affinities of the four small molecules with the mutant protein AlaRS^R329H. […] To further quantify the binding of small molecules to mutant proteins, binding experiments with AlaRS^R329H proteins and small molecules were conducted using an Octet R8 system (ForteBio, Fremont, CA, USA). Purified His-tagged AlaRS^R329H proteins (500 μg/mL) were captured on Ni-NTA biosensors (ForteBio, Fremont, CA, USA), achieving a saturation response of 4–5 nm after 300 s. The biosensors were then transferred to Octet buffer (PBS with 0.01% Tween 20) for 180 s to remove loosely bound, nonspecific proteins and to establish a stable baseline. Following this, the sensors were immersed in diluted Tanshinone I (2.5–100 μM in assay buffer) for 120 s to record the association signal, and then transferred back into Octet buffer to monitor the dissociation signal for 120 s. Reference wells containing buffer instead of Tanshinone I were included to correct for baseline shifts. Additionally, a parallel set of Ni-NTA sensors in buffer served as negative reference controls to account for nonspecific binding of the compounds to the biosensor surface. The data were processed using a double reference subtraction protocol to eliminate nonspecific signals, background noise, and signal drifts caused by biosensor variability. All assays were performed in 96-well black plates with a total volume of 200 μL per well at 30 °C. Data analysis, including correction and curve fitting, was carried out using Octet® Analysis Studio 12.2.2.26. The experiment was repeated three times.

- Relative Activity (relative enzyme activity of the first step) [1]: 26.2%
- Kd [3]: 5.1 ± 1.9 µM
Compound: Cc1coc2c1C(=O)C(=O)c1c-2ccc2c(C)cccc12 [Tanshinone I]
- Effect on distribution of digestion fragments / conformation [2]: markedly altered the digestion fragment pattern; also recorded: significant change in the distribution of the bands
